Measured values taken from PubChem BioAssay AID1963841 (Molecular Pharmacology Branch, DTP, NCI, 2024).

System: 439559-082-T-J2-PDC spheroid viability
Test: Anticancer human tumor 439559-082-T-J2-PDC patient-derived colon adenocarcinoma cell line growth inhibition [POLQ]
Conditions: spheroids with HUVEC and MSC; for IC50: curve of first compound; for viability, T/C: stronger effect = lower value
Outline: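 Complex spheroid viability model combining PDC tumour cells with endothelial (HUVEC) and MSC stromal cells. Novobiocin, ART-558 or RP6685 were tested singly and in combination with standard and investigational anticancer drugs. Each was titrated in half-log steps from near clinical Cmax, or from 10 microM where Cmax was unknown.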

[1] = second compound 0.0316 µM, first compound 0.0316 µM
[2] = second compound 0.0316 µM, first compound 0.1 µM
[3] = second compound 0.0316 µM, first compound 0.316 µM
[4] = second compound 0.0316 µM, first compound 1 µM
[5] = second compound 0.1 µM, first compound 0.0316 µM
[6] = second compound 0.1 µM, first compound 0.1 µM
[7] = second compound 0.1 µM, first compound 0.316 µM
[8] = second compound 0.1 µM, first compound 1 µM
[9] = second compound 0.316 µM, first compound 0.0316 µM
[10] = second compound 0.316 µM, first compound 0.1 µM
[11] = second compound 0.316 µM, first compound 0.316 µM
[12] = second compound 0.316 µM, first compound 1 µM
[13] = second compound 1 µM, first compound 0.0316 µM
[14] = second compound 1 µM, first compound 0.1 µM
[15] = second compound 1 µM, first compound 0.316 µM
[16] = second compound 1 µM, first compound 1 µM
[17] = second compound 3.16 µM, first compound 0.0316 µM
[18] = second compound 3.16 µM, first compound 0.1 µM
[19] = second compound 3.16 µM, first compound 0.316 µM
[20] = second compound 3.16 µM, first compound 1 µM
[21] = second compound 10 µM, first compound 0.0316 µM
[22] = second compound 10 µM, first compound 0.1 µM
[23] = second compound 10 µM, first compound 0.316 µM
[24] = second compound 10 µM, first compound 1 µM
[25] = second compound 0.0316 µM, first compound 0.00316 µM
[26] = second compound 0.0316 µM, first compound 0.01 µM
[27] = second compound 0.1 µM, first compound 0.00316 µM
[28] = second compound 0.1 µM, first compound 0.01 µM
[29] = second compound 0.316 µM, first compound 0.00316 µM
[30] = second compound 0.316 µM, first compound 0.01 µM
[31] = second compound 1 µM, first compound 0.00316 µM
[32] = second compound 1 µM, first compound 0.01 µM
[33] = second compound 3.16 µM, first compound 0.00316 µM
[34] = second compound 3.16 µM, first compound 0.01 µM
[35] = second compound 10 µM, first compound 0.00316 µM
[36] = second compound 10 µM, first compound 0.01 µM
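Note: spheroids exposed to compounds for seven days before readout.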
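Throughout, for viability, T/C: 100% = DMSO vehicle control viability.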

CCCS(=O)(=O)Nc1ccc(F)c(C(=O)c2c[nH]c3ncc(-c4ccc(Cl)cc4)cc23)c1F + Cc1cccc(N(C)C(=O)C2C(O)CCN2c2nc(C)cc(C(F)(F)F)c2C#N)c1
IC50 (second compound 0.0316 µM): > 10000 nM | IC50 (second compound 0.1 µM): > 10000 nM | IC50 (second compound 0.316 µM): > 10000 nM | IC50 (second compound 1 µM): > 10000 nM | IC50 (second compound 3.16 µM): > 10000 nM | IC50 (second compound 10 µM): > 10000 nM | viability, T/C [1]: 103% | viability, T/C [2]: 106% | viability, T/C [3]: 92.1% | viability, T/C [4]: 97% | viability, T/C (second compound 0.0316 µM, first compound 3.16 µM): 94.8% | viability, T/C (second compound 0.0316 µM, first compound 10 µM): 80.3% | viability, T/C [5]: 100% | viability, T/C [6]: 96.1% | viability, T/C [7]: 91.5% | viability, T/C [8]: 94.4% | viability, T/C (second compound 0.1 µM, first compound 3.16 µM): 113% | viability, T/C (second compound 0.1 µM, first compound 10 µM): 75.8% | viability, T/C [9]: 93.5% | viability, T/C [10]: 94.4% | viability, T/C [11]: 106% | viability, T/C [12]: 86% | viability, T/C (second compound 0.316 µM, first compound 3.16 µM): 99.4% | viability, T/C (second compound 0.316 µM, first compound 10 µM): 79.5% | viability, T/C [13]: 96.2% | viability, T/C [14]: 103% | viability, T/C [15]: 92.8% | viability, T/C [16]: 95.3% | viability, T/C (second compound 1 µM, first compound 3.16 µM): 91.5% | viability, T/C (second compound 1 µM, first compound 10 µM): 78.3% | viability, T/C [17]: 99% | viability, T/C [18]: 90.2% | viability, T/C [19]: 94.9% | viability, T/C [20]: 102% | viability, T/C (second compound 3.16 µM, first compound 3.16 µM): 102% | viability, T/C (second compound 3.16 µM, first compound 10 µM): 74.4% | viability, T/C [21]: 101% | viability, T/C [22]: 96.3% | viability, T/C [23]: 82.8% | viability, T/C [24]: 90.2% | viability, T/C (second compound 10 µM, first compound 3.16 µM): 90.2% | viability, T/C (second compound 10 µM, first compound 10 µM): 70.5%

COc1cccc(OCCCN)c1-c1cc(Nc2cnc(C#N)cn2)n[nH]1 + Cc1cccc(N(C)C(=O)C2C(O)CCN2c2nc(C)cc(C(F)(F)F)c2C#N)c1
IC50 (second compound 0.0316 µM): 274 nM | IC50 (second compound 0.1 µM): 319 nM | IC50 (second compound 0.316 µM): 299 nM | IC50 (second compound 1 µM): 398 nM | IC50 (second compound 3.16 µM): 291 nM | IC50 (second compound 10 µM): 150 nM | viability, T/C [25]: 99.3% | viability, T/C [26]: 99.7% | viability, T/C [1]: 71% | viability, T/C [2]: 77.9% | viability, T/C [3]: 44.8% | viability, T/C [4]: 18.5% | viability, T/C [27]: 100% | viability, T/C [28]: 74.7% | viability, T/C [5]: 71.1% | viability, T/C [6]: 78.1% | viability, T/C [7]: 49.5% | viability, T/C [8]: 19.9% | viability, T/C [29]: 104% | viability, T/C [30]: 83.8% | viability, T/C [9]: 84.8% | viability, T/C [10]: 68.7% | viability, T/C [11]: 51% | viability, T/C [12]: 19.8% | viability, T/C [31]: 110% | viability, T/C [32]: 94.2% | viability, T/C [13]: 82.5% | viability, T/C [14]: 77.5% | viability, T/C [15]: 64.2% | viability, T/C [16]: 20.9% | viability, T/C [33]: 87.6% | viability, T/C [34]: 102% | viability, T/C [17]: 81.7% | viability, T/C [18]: 74.9% | viability, T/C [19]: 48.1% | viability, T/C [20]: 19.4% | viability, T/C [35]: 101% | viability, T/C [36]: 86.9% | viability, T/C [21]: 94.5% | viability, T/C [22]: 63.2% | viability, T/C [23]: 25.1% | viability, T/C [24]: 16.2%

Cn1ncnc1[C@H]1c2n[nH]c(=O)c3cc(F)cc(c23)N[C@@H]1c1ccc(F)cc1 + Cc1cccc(N(C)C(=O)C2C(O)CCN2c2nc(C)cc(C(F)(F)F)c2C#N)c1
IC50 (second compound 0.0316 µM): > 100 nM | IC50 (second compound 0.1 µM): > 100 nM | IC50 (second compound 0.316 µM): > 100 nM | IC50 (second compound 1 µM): > 100 nM | IC50 (second compound 3.16 µM): > 100 nM | IC50 (second compound 10 µM): > 100 nM | viability, T/C (second compound 0.0316 µM, first compound 0.000316 µM): 97.7% | viability, T/C (second compound 0.0316 µM, first compound 0.001 µM): 103% | viability, T/C [25]: 97.5% | viability, T/C [26]: 99.2% | viability, T/C [1]: 90.8% | viability, T/C [2]: 93.4% | viability, T/C (second compound 0.1 µM, first compound 0.000316 µM): 108% | viability, T/C (second compound 0.1 µM, first compound 0.001 µM): 108% | viability, T/C [27]: 96% | viability, T/C [28]: 102% | viability, T/C [5]: 94.5% | viability, T/C [6]: 86.3% | viability, T/C (second compound 0.316 µM, first compound 0.000316 µM): 105% | viability, T/C (second compound 0.316 µM, first compound 0.001 µM): 107% | viability, T/C [29]: 99.6% | viability, T/C [30]: 99.5% | viability, T/C [9]: 92.7% | viability, T/C [10]: 93.4% | viability, T/C (second compound 1 µM, first compound 0.000316 µM): 110% | viability, T/C (second compound 1 µM, first compound 0.001 µM): 96.5% | viability, T/C [31]: 93.1% | viability, T/C [32]: 92.8% | viability, T/C [13]: 99.9% | viability, T/C [14]: 96.8% | viability, T/C (second compound 3.16 µM, first compound 0.000316 µM): 93% | viability, T/C (second compound 3.16 µM, first compound 0.001 µM): 103% | viability, T/C [33]: 103% | viability, T/C [34]: 91.9% | viability, T/C [17]: 101% | viability, T/C [18]: 87.5% | viability, T/C (second compound 10 µM, first compound 0.000316 µM): 95.7% | viability, T/C (second compound 10 µM, first compound 0.001 µM): 98.1% | viability, T/C [35]: 95.4% | viability, T/C [36]: 86.2% | viability, T/C [21]: 91.5% | viability, T/C [22]: 85.2%
